{"source": "patent US12226412B2", "about": "“Heteroaryl-ketone fused azadecalin glucocorticoid receptor modulators” (Corcept Therapeutics, Inc., priority 2012, dated 2025)", "key": {"[1]": {"target": "T1, human recombinant GR (Homo sapiens, UniProt P04150)", "T1 construct": "purchased PanVera P2812", "T1 sequence (P04150 1-777)": "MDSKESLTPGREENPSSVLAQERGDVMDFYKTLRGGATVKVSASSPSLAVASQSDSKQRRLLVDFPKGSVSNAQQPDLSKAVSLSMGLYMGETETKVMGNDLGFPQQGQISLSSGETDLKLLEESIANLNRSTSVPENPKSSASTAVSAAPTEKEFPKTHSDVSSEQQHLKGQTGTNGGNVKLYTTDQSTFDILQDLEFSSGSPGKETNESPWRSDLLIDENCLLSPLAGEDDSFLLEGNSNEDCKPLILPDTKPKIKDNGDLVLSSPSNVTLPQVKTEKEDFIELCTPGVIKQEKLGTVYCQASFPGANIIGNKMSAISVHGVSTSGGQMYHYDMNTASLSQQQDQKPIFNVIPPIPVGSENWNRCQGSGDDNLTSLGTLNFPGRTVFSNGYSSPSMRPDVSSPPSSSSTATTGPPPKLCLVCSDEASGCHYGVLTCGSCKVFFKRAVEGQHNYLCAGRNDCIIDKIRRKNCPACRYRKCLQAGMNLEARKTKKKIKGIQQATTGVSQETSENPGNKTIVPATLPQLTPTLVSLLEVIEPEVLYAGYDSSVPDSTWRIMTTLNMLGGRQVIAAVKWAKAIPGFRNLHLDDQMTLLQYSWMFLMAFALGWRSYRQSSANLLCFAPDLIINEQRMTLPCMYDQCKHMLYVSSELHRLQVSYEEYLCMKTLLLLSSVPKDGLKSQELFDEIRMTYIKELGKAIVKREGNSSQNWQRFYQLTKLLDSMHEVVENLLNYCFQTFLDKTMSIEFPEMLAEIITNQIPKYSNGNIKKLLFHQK", "assay": "Human glucocorticoid receptor (GR) fluorescence polarisation (FP) binding assay", "conditions": "human recombinant GR, fluorescence polarisation binding assay; read-out: GR binding", "outline": "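Competition fluorescence polarisation: 0.5 nM GS Red labelled glucocorticoid and 1 nM recombinant human GR with 8-point half-log compound series, 1% DMSO, 4 h room temperature, potassium phosphate pH 7.4 buffer with molybdate, EDTA, DTT. Affinity derived from the drop in polarisation, normalised to blank wells.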"}, "[2]": {"tested_on": "induction of TAT by dexamethasone in HepG2 cells", "assay": "HepG2 tyrosine aminotransferase (TAT) assay", "type": "cell-based, human", "conditions": "HepG2 cells, challenge of 100 nM dexamethasone; Ki from IC50 by Cheng and Prusoff equation"}}, "note": "pKi: −log10 of the molar value.", "data": [{"compound": "Cc1csc(C(=O)[C@]23Cc4cnn(-c5ccc(F)cc5)c4C=C2CCN(S(=O)(=O)c2cccc(C(F)(F)F)c2)C3)n1", "note": "[Example 12M, (R)-(1-(4-fluorophenyl)-6-((3-(trifluoromethyl)phenyl)sulfonyl)-4,4a,5,6,7,8-hexahydro-1H-pyrazolo[3,4-g]isoquinolin-4a-yl)(4-methylthiazol-2-yl)methanone]", "values": [{"measurement": "pKi", "setting": "[1]", "value": "9.00 to 9.30"}, {"measurement": "pKi", "setting": "[2]", "value": "7.00 to 7.70"}]}, {"compound": "O=C(c1nccs1)[C@]12Cc3cnn(-c4ccc(F)cc4)c3C=C1CCN(S(=O)(=O)c1ccc(Cl)c(Cl)c1)C2", "note": "[Example 12N, (R)-(6-((3,4-dichlorophenyl)sulfonyl)-1-(4-fluorophenyl)-4,4a,5,6,7,8-hexahydro-1H-pyrazolo[3,4-g]isoquinolin-4a-yl)(thiazol-2-yl)methanone]", "values": [{"measurement": "pKi", "setting": "[1]", "value": "9.00 to 9.30"}, {"measurement": "pKi", "setting": "[2]", "value": "> 7.70"}]}, {"compound": "O=C(c1nccs1)[C@]12Cc3cnn(-c4ccc(F)cc4)c3C=C1CCN(S(=O)(=O)c1ccc(F)c(F)c1)C2", "note": "[Example 12P, (R)-(6-((3,4-difluorophenyl)sulfonyl)-1-(4-fluorophenyl)-4,4a,5,6,7,8-hexahydro-1H-pyrazolo[3,4-g]isoquinolin-4a-yl)(thiazol-2-yl)methanone]", "values": [{"measurement": "pKi", "setting": "[1]", "value": "> 9.30"}, {"measurement": "pKi", "setting": "[2]", "value": "7.00 to 7.70"}]}, {"compound": "Cc1cnc(C(=O)[C@]23Cc4cnn(-c5ccc(F)cc5)c4C=C2CCN(S(=O)(=O)c2ccc(F)c(F)c2)C3)s1", "note": "[Example 12Q, (R)-(6-((3,4-difluorophenyl)sulfonyl)-1-(4-fluorophenyl)-4,4a,5,6,7,8-hexahydro-1H-pyrazolo[3,4-g]isoquinolin-4a-yl)(5-methylthiazol-2-yl)methanone]", "values": [{"measurement": "pKi", "setting": "[1]", "value": "< 9.00"}, {"measurement": "pKi", "setting": "[2]", "value": "> 7.70"}]}, {"compound": "Cc1cnc(C(=O)[C@]23Cc4cnn(-c5ccc(F)cc5)c4C=C2CCN(S(=O)(=O)c2ccc(Cl)c(F)c2)C3)s1", "note": "[Example 12R, (R)-(6-((4-chloro-3-fluorophenyl)sulfonyl)-1-(4-fluorophenyl)-4,4a,5,6,7,8-hexahydro-1H-pyrazolo[3,4-g]isoquinolin-4a-yl)(5-methylthiazol-2-yl)methanone]", "values": [{"measurement": "pKi", "setting": "[1]", "value": "9.00 to 9.30"}, {"measurement": "pKi", "setting": "[2]", "value": "> 7.70"}]}, {"compound": "Cc1cnc(C(=O)[C@]23Cc4cnn(-c5ccc(F)cc5)c4C=C2CCN(S(=O)(=O)c2ccn(C)n2)C3)s1", "note": "[Example 12S, (R)-(1-(4-fluorophenyl)-6-((1-methyl-1H-pyrazol-3-yl)sulfonyl)-4,4a,5,6,7,8-hexahydro-1H-pyrazolo[3,4-g]isoquinolin-4a-yl)(5-methylthiazol-2-yl)methanone]", "values": [{"measurement": "pKi", "setting": "[1]", "value": "> 9.30"}, {"measurement": "pKi", "setting": "[2]", "value": "> 7.70"}]}, {"compound": "Cc1cnc(C(=O)[C@]23Cc4cnn(-c5ccc(F)cc5)c4C=C2CCN(S(=O)(=O)c2cnn(C)c2)C3)s1", "note": "[Example 12T, (R)-(1-(4-fluorophenyl)-6-((1-methyl-1H-pyrazol-4-yl)sulfonyl)-4,4a,5,6,7,8-hexahydro-1H-pyrazolo[3,4-g]isoquinolin-4a-yl)(5-methylthiazol-2-yl)methanone]", "values": [{"measurement": "pKi", "setting": "[1]", "value": "> 9.30"}, {"measurement": "pKi", "setting": "[2]", "value": "> 7.70"}]}, {"compound": "Cc1cc(S(=O)(=O)N2CCC3=Cc4c(cnn4-c4ccc(F)cc4)C[C@]3(C(=O)c3ncc(C)s3)C2)n(C)n1", "note": "[Example 12U, (R)-(6-((1,3-dimethyl-1H-pyrazol-5-yl)sulfonyl)-1-(4-fluorophenyl)-4,4a,5,6,7,8-hexahydro-1H-pyrazolo[3,4-g]isoquinolin-4a-yl)(5-methylthiazol-2-yl)methanone]", "values": [{"measurement": "pKi", "setting": "[1]", "value": "< 9.00"}, {"measurement": "pKi", "setting": "[2]", "value": "7.00 to 7.70"}]}, {"compound": "Cc1cnc(C(=O)[C@]23Cc4cnn(-c5ccc(F)cc5)c4C=C2CCN(S(=O)(=O)c2ccnn2C)C3)s1", "note": "[Example 12V, (R)-(1-(4-fluorophenyl)-6-((1-methyl-1H-pyrazol-5-yl)sulfonyl)-4,4a,5,6,7,8-hexahydro-1H-pyrazolo[3,4-g]isoquinolin-4a-yl)(5-methylthiazol-2-yl)methanone]", "values": [{"measurement": "pKi", "setting": "[1]", "value": "9.00 to 9.30"}, {"measurement": "pKi", "setting": "[2]", "value": "7.00 to 7.70"}]}, {"compound": "CCn1nccc1S(=O)(=O)N1CCC2=Cc3c(cnn3-c3ccc(F)cc3)C[C@]2(C(=O)c2nccs2)C1", "note": "[Example 12W, (R)-(6-((1-ethyl-1H-pyrazol-5-yl)sulfonyl)-1-(4-fluorophenyl)-4,4a,5,6,7,8-hexahydro-1H-pyrazolo[3,4-g]isoquinolin-4a-yl)(thiazol-2-yl)methanone]", "values": [{"measurement": "pKi", "setting": "[1]", "value": "< 9.00"}, {"measurement": "pKi", "setting": "[2]", "value": "≤ 7.00"}]}, {"compound": "CCn1cc(S(=O)(=O)N2CCC3=Cc4c(cnn4-c4ccc(F)cc4)C[C@]3(C(=O)c3nccs3)C2)cn1", "note": "[Example 12X, (R)-(6-((1-ethyl-1H-pyrazol-4-yl)sulfonyl)-1-(4-fluorophenyl)-4,4a,5,6,7,8-hexahydro-1H-pyrazolo[3,4-g]isoquinolin-4a-yl)(thiazol-2-yl)methanone]", "values": [{"measurement": "pKi", "setting": "[1]", "value": "> 9.30"}, {"measurement": "pKi", "setting": "[2]", "value": "7.00 to 7.70"}]}, {"compound": "CCCn1cc(S(=O)(=O)N2CCC3=Cc4c(cnn4-c4ccc(F)cc4)C[C@]3(C(=O)c3nccs3)C2)cn1", "note": "[Example 12Y, (R)-(1-(4-fluorophenyl)-6-((1-propyl-1H-pyrazol-4-yl)sulfonyl)-4,4a,5,6,7,8-hexahydro-1H-pyrazolo[3,4-g]isoquinolin-4a-yl)(thiazol-2-yl)methanone]", "values": [{"measurement": "pKi", "setting": "[1]", "value": "> 9.30"}, {"measurement": "pKi", "setting": "[2]", "value": "> 7.70"}]}, {"compound": "Cc1ccc(S(=O)(=O)N2CCC3=Cc4c(cnn4-c4ccc(F)cc4)C[C@]3(C(=O)c3nccn3C)C2)cc1", "note": "[Example 13, (R)-(1-(4-fluorophenyl)-6-tosyl-4,4a,5,6,7,8-hexahydro-1H-pyrazolo [3,4-g]isoquinolin-4a-yl)(1-methyl-1H-imidazol-2-yl)methanone]", "values": [{"measurement": "pKi", "setting": "[1]", "value": "9.00 to 9.30"}, {"measurement": "pKi", "setting": "[2]", "value": "7.00 to 7.70"}]}, {"compound": "Cc1cccc(S(=O)(=O)N2CCC3=Cc4c(cnn4-c4ccc(F)cc4)C[C@]3(C(=O)c3nccn3C)C2)c1", "note": "[Example 13A, (R)-(1-(4-fluorophenyl)-6-(m-tolylsulfonyl)-4,4a,5,6,7,8-hexahydro-1H-pyrazolo [3,4-g]isoquinolin-4a-yl)(1-methyl-1H-imidazol-2-yl)methanone]", "values": [{"measurement": "pKi", "setting": "[1]", "value": "> 9.30"}, {"measurement": "pKi", "setting": "[2]", "value": "7.00 to 7.70"}]}, {"compound": "CN(C)C(=O)c1cccc(S(=O)(=O)N2CCC3=Cc4c(cnn4-c4ccc(F)cc4)C[C@]3(C(=O)c3ccccn3)C2)c1", "note": "[Example 14, (R)-3-((1-(4-fluorophenyl)-4a-picolinoyl-4a,5,7,8-tetrahydro-1H-pyrazolo[3,4-g]isoquinolin-6 (4H)-yl)sulfonyl)-N,N-dimethylbenzamide]", "values": [{"measurement": "pKi", "setting": "[1]", "value": "> 9.30"}, {"measurement": "pKi", "setting": "[2]", "value": "7.00 to 7.70"}]}, {"compound": "CCn1cc(S(=O)(=O)N2CCC3=Cc4c(cnn4-c4ccc(F)cc4)C[C@]3(C(=O)c3cc(C(F)(F)F)ccn3)C2)cn1", "note": "[Example 15, (R)-(6-((1-ethyl-1H-pyrazol-4-yl)sulfonyl)-1-(4-fluorophenyl)-4,4a,5,6,7,8-hexahydro-1H-pyrazolo[3,4-g]isoquinolin-4a-yl)(4-(trifluoromethyl)pyridin-2-yl)methanone]", "values": [{"measurement": "pKi", "setting": "[1]", "value": "> 9.30"}, {"measurement": "pKi", "setting": "[2]", "value": "> 7.70"}]}, {"compound": "O=C(c1ccccn1)[C@]12Cc3cnn(-c4cccnc4)c3C=C1CCN(S(=O)(=O)c1cccc(C(F)(F)F)c1)C2", "note": "[Example 15A, (R)-pyridin-2-yl(1-(pyridin-3-yl)-6-((3-(trifluoromethyl)phenyl)sulfonyl)-4,4a,5,6,7,8-hexahydro-1H-pyrazolo[3,4-g]isoquinolin-4a-yl)methanone]", "values": [{"measurement": "pKi", "setting": "[1]", "value": "> 9.30"}, {"measurement": "pKi", "setting": "[2]", "value": "7.00 to 7.70"}]}, {"compound": "O=C(c1ccccn1)[C@]12Cc3cnn(-c4ccccc4)c3C=C1CCN(S(=O)(=O)c1ccc(Cl)c(Cl)c1)C2", "note": "[Example 15B, (R)-(6-((3,4-dichlorophenyl)sulfonyl)-1-phenyl-4,4a,5,6,7,8-hexahydro-1H-pyrazolo[3,4-g]isoquinolin-4a-yl)(pyridin-2-yl)methanone]", "values": [{"measurement": "pKi", "setting": "[1]", "value": "> 9.30"}, {"measurement": "pKi", "setting": "[2]", "value": "> 7.70"}]}]}
